Like-named read-outs stand apart in the source and are kept apart here.
Columns and labels:
[1] = test system: MiaPaCa; assay: MiaPaCa Lactate OP; type: cell-based; conditions: Homo sapiens, MIA PaCa-2; MiaPaCa cells
[2] = test system: A673; assay: A673 Lactate OP; type: cell-based; conditions: Homo sapiens; A673 cells
[3] = test system: A673; assay: A673 CTG; type: cell-based; conditions: Homo sapiens; A673 cells
[4] = PK AUC after IV and PO dosing; conditions: in vivo
[5] = target: LDA(B) (Homo sapiens, UniProt P07195); assay: LDA(B) biochemical IC50
[6] = target: LDH(A) (Homo sapiens, UniProt P00338); assay: LDH(A) biochemical IC50
[7] = test system: MiaPaCa; assay: MiaPaCa CTG; type: cell-based; conditions: Homo sapiens, MIA PaCa-2; MiaPaCa cells
[8] = target: lactate dehydrogenase (Homo sapiens, UniProt P00338); assay: SPR binding (+NADH)
[9] = test system: mouse CD8+ T cells; assay: Seahorse mitochondrial stress test (OCR, ECAR, SRC), mouse CD8+ T cells; type: cell-based; conditions: NCI-737 1 μM
Experimental: (§1) Except where otherwise specified, all experiments were performed with murine splenic CD8+ T cells isolated with […] Technologies EasySep™ Mouse CD8+ T Cell Isolation Kit (catalog #19853). Following isolation, cells were resuspended at 1×10^6 cells/ml in T cell culture medium: RPMI 1640 medium (Thermo 11875093) containing 10% fetal bovine serum (FBS), 1× Glutamax (Life Technologies #35050-061), 1 mM sodium pyruvate, 0.1% β-mercaptoethanol, and penicillin/streptomycin. Cells were plated in 24-well tissue culture plates precoated with mouse anti-CD3 (2 μg/ml) and cultured with soluble mouse anti-CD28 (2 μg/ml) for 48 h. After incubation, cells were pooled, washed twice in media, and re-plated at 1×10^6 cells/ml. […] Unless otherwise specified, cells were stimulated for 48 h before being harvested. Where noted, cells were treated (1 μM) with a novel, pyrazole-based LDH inhibitor (NCI-737, herein denoted as NCI-737) that was developed under the auspices of the NCI Experimental Therapeutics Program 29.
The oxygen consumption rates (OCR) and extracellular acidification rates (ECAR) were recorded using a Seahorse XFe96 Analyzer (Agilent). Cells were washed and resuspended in Agilent XF Assay Medium supplemented with 25 mM glucose, 1 mM sodium pyruvate, and 2 mM L-Glutamine. Cells were plated on Seahorse Assay plates at 0.2×10^6 cells/well and during the assay were exposed to 1 μM oligomycin, 1.5 μM trifluoromethoxy carbonylcyanide phenylhydrazone (“FCCP”), 100 nM rotenone, and 1 μM antimycin A, as indicated.

[10] = test system: murine splenic CD8+ T cells; assay: U-13C-glucose tracer study; type: cell-based, mouse; conditions: NCI-737 1 μM
Experimental: as §1, with “Where noted, cells were treated (1 μM) with a novel, pyrazole-based LDH inhibitor (NCI-737, herein denoted as NCI-737) that was developed under the auspices of the NCI Experimental Therapeutics Program 29.” left out
(§2) Cells were then washed with media supplemented with dialyzed fetal bovine serum (“FBS”) (Thermo-Fischer #A3382001), replated in RPMI 1640 medium containing 10% dialyzed FBS, 1× Glutamax (ThermoFisher #35050061), 1 mM sodium pyruvate, 0.1% β-mercaptoethanol, and penicillin-streptomycin, and re-stimulated with same cytokine treatment for 5 h. […] Cell extracts were analyzed using a quadrupole-orbitrap mass spectrometer (Q Exactive, Thermo Fisher Scientific, San Jose, CA) coupled to hydrophilic interaction chromatography via electrospray ionization. […] Data were analyzed using EL-MAVEN software. […]

[11] = test system: human CD8+ T cells; assay: Seahorse mitochondrial stress test (OCR, ECAR, SRC), human CD8+ T cells; type: cell-based; conditions: both IL-21 and IL-2
[12] = test system: B16 melanoma (B16KVP); assay: Mouse tumor model and adoptive transfer; type: in vivo
[13] = test system: murine splenic CD8+ T cells; assay: Media measurements of lactate secretion and glucose consumption (YSI 2900 analyzer); type: cell-based, mouse; conditions: IL-2- or IL-21-stimulated cells; NCI-737 1 μM
Experimental: as §1, with “Where noted, cells were treated (1 μM) with a novel, pyrazole-based LDH inhibitor (NCI-737, herein denoted as NCI-737) that was developed under the auspices of the NCI Experimental Therapeutics Program 29.” left out
as §2

[14] = test system: pmel-1 CD8+ T cells; assay: Flow cytometry of pmel-1 CD8+ T cell differentiation (CD44, CD62L, Sca-1); type: cell-based, mouse; conditions: NCI-737 1 μM
[15] = test system: murine splenic CD8+ T cells; assay: RNA-Seq gene expression; type: cell-based, mouse
Experimental: as §1
Total RNA was extracted using an RNA miniprep kit (Zymo Research), and 500 ng RNA was used for library preparation. RNA-Seq libraries were prepared using mRNA HyperPrep Kits (KK8580, Kapa Biosystems) and indexed with NEXTflex DNA Barcodes-24. After final amplification, samples were loaded to 2% E-Gel pre-cast gels (ThermoFisher), and 250 to 400 bp DNA fragments were recovered and purified with Zymoclean Gel DNA Recovery Kit […]. After quantification by Qubit (Invitrogen), barcoded samples were mixed and sequenced on an Illumina HiSeq3000 platform. Sequenced reads (50 bp, single end) were obtained with the Illumina CASAVA pipeline and mapped to the mouse genome mm10 (GRCm38, December 2011) using Bowtie 2.2.649 and Tophat 2.2.149. Only uniquely mapped reads were retained. Raw counts that fell on exons were calculated and normalized by using RPKM (Reads Per Kilobase per Million mapped reads). Differentially expressed genes were identified with the R Bioconductor package edgeR50, and the expression heat maps were generated with the R package “pheatmap”. Metabolic genes were extracted from the KEGG pathway database, including those corresponding to Fatty Acid Biosynthesis/Degradation, Ox/Phos, Pyruvate metabolism, amino sugar and nucleotide sugar metabolism, pentose phosphate pathway, the citric acid cycle, and glycolysis/gluconeogenesis. Metabolic genes that overlapped with RNA-Seq data were subsequently shown in heat maps.

[16] = test system: murine splenic CD8+ T cells; assay: LC-MS metabolomics of intracellular metabolites; type: cell-based, mouse; conditions: NCI-737 1 μM
Experimental: as §1
Cells were then washed with media supplemented with dialyzed fetal bovine serum (“FBS”) (Thermo-Fischer #A3382001), replated in RPMI 1640 medium containing 10% dialyzed FBS, 1× Glutamax (ThermoFisher #35050061), 1 mM sodium pyruvate, 0.1% β-mercaptoethanol, and penicillin-streptomycin, and re-stimulated with same cytokine treatment for 5 h. For ^13C labelling, cells were instead replated in media containing 2 g/L U^13C-glucose (Cambridge Isotope Laboratories #CLM-1396) for 6 h. 3×10^6 cells/replicate (3-4 replicates/treatment) were then transferred to microcentrifuge tubes and centrifuged for 1 min at 6000×g. Room temperature PBS was added to wash cell pellets followed by another round of centrifugation for 1 min. Pellets were then immediately resuspended in 150 μl of ice cold extraction solvent (40:40:20 acetonitrile:methanol:water+0.5% formic acid) for 5 min. After incubation, 13.2 μl of 15% ammonium bicarbonate, was added and samples were centrifuged for 15 min at maximum speed at 4° C. Supernatant containing cellular metabolites was transferred to a fresh tube, frozen in dry ice, and stored at −80° C. Cell extracts were analyzed using a quadrupole-orbitrap mass spectrometer (Q Exactive, Thermo Fisher Scientific, San Jose, CA) coupled to hydrophilic interaction chromatography via electrospray ionization. LC separation was on a XBridge BEH Amide column (2.1 mm×150 mm, 2.5 μm particle size; Waters, Milford, MA) using a gradient of solvent A (20 mM ammonium acetate, 20 mM ammonium hydroxide in 95:5 water: acetonitrile, pH 9.45) and solvent B (acetonitrile). The flow rate was 150 μl/min, column temperature was 25° C., autosampler temperature was 5° C., and injection volume was 10 μL. The LC gradient was: 0 min, 90% B; 2 min, 85% B; 3 min, 75% B; 7 min, 75% B; 8 min, 70% B; 9 min, 70% B; 10 min, 50% B; 12 min, 50% B; 13 min, 25% B; 14 min, 25% B; 16 min, 0% B; 21 min, 0% B; 22 min, 90% B; 25 min, 90% B. Autosampler temperature was 5° C., and injection volume was 10 μl. The mass spectrometer was operated in negative ion mode to scan from m/z 70 to 1000 at 1 Hz and a resolving power of 140,000 45. Data were analyzed using EL-MAVEN software. Isotope labeling was corrected for natural 13C abundance47. Media measurements were acquired using a YSI 2900 Series Biochemical Analyzer (Xylem).

[17] = PO 50 mg/kg, read-out: PO 50 mg/kg AUC

Chain of LDA(B) (P07195 whole entry): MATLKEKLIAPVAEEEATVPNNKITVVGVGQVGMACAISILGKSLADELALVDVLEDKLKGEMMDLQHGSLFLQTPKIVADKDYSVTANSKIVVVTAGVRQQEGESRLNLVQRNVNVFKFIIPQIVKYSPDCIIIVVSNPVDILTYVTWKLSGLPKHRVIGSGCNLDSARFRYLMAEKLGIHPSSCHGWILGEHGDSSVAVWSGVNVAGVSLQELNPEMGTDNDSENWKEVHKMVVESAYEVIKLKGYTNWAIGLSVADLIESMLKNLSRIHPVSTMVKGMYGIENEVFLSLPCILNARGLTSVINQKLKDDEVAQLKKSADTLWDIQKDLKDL

## Cc1ccc(C#Cc2cc(-c3nn(-c4nc(C(=O)O)cs4)c(CC4CC4)c3Cc3ccc(S(N)(=O)=O)c(F)c3)ccc2F)s1 [Compound 390006]
[1]
  EC50: 283 nM
[2]
  EC50: 349 nM
[3]
  EC50: 305 nM
[4]; IV 10 mg/kg
  AUC: 10600 ng·h/mL
[4]; [17]
  AUC: 31400 ng·h/mL
[5]
  IC50: 53 nM
[6]
  IC50: 80 nM
[7]
  EC50: 355 nM
[8]
  SPR ka (+NADH): 15000 M⁻¹ s⁻¹
  SPR kd (+NADH): <1e-06 s⁻¹

## Cc1ccc(C#Cc2cccc(-c3nn(-c4nc(C(=O)O)cs4)c(CC4CC4)c3Cc3ccc(S(N)(=O)=O)c(F)c3)c2)s1 [Compound 420737]
[1]
  EC50: 236 nM
[9]; IL-2-treated cells
  ECAR: decreased
  OCR: significantly increased
  SRC: significantly increased
[9]; IL-21-treated cells
  ECAR: did not significantly alter
  SRC: did not significantly alter
  basal OCR: did not significantly alter
[2]
  EC50: 344 nM
[3]
  EC50: 221 nM
[4]; IV 10 mg/kg
  AUC: 16500 ng·h/mL
[4]; [17]
  AUC: 53400 ng·h/mL
[10]; IL-2-treated cells
  relative contribution of glucose into the TCA cycle: higher relative contribution
[10]; IL-21-stimulated cells
  isotopomer distribution: little effect
[5]
  IC50: 44 nM
[11]
  ECAR: decreased
  SRC: raised
[12]; IL-2-treated cells, NCI-737 1 μM only during in vitro expansion
  antitumor effect of adoptively transferred pmel-1 CD8+ T cells: augmented the antitumor effect to the level of IL-21-treated cells
[12]; cells generated with IL-21 and NCI-737 (1 μM, in vitro only)
  antitumor effect of adoptively transferred pmel-1 CD8+ T cells: the most potent
[13]
  glucose consumption: reduced
  lactate secretion: reduced
[6]
  IC50: 68 nM
[7]
  EC50: 319 nM
[8]
  SPR ka (+NADH): 16000 M⁻¹ s⁻¹
  SPR kd (+NADH): <1e-06 s⁻¹
[14]; IL-2-treated pmel-1 cells
  TSCM cells: restored TSCM cells in IL-2-treated cells to the levels observed with IL-21
[14]; IL-21-treated pmel-1 cells
  TSCM cells: synergized with IL-21 to generate TSCM cells
[15]; IL-2-induced, addition of NCI-737
  transcripts for exhaustion-associated transcription factors Nr4a1, Nr4a2, Nrfa3, Prdm1: decreased by the addition of NCI-737 to levels similar to that observed in cells cultured with IL-21
[15]; IL-2 context, NCI-737 1 μM
  induction of Ldha by IL-2: prevented the induction
  levels of Ldhb: increased
[15]; induced by IL-2, NCI-737
  XBP1 transcript expression: inhibited
[15]; induced by IL-21, addition of NCI-737
  transcripts for exhaustion markers Lag3, Pdcd1, Cd244, Havcr2: repressed
[16]; IL-2-treated cells
  increase in the NADH/NAD+ ratio: ~100 fold
  intracellular pyruvate: markedly increased
[16]; IL-2 setting
  2-hydroxyglutarate (2HG): decreased
  increase in glycolytic intermediates and FGAR: > 4 fold
[16]; IL-21 stimulated cells
  NADH/NAD+ ratio: slightly raised
  intracellular pyruvate levels: did not alter
  metabolite levels: little effect
[16]; cells stimulated with either IL-2 or IL-21
  lactate in cells: lowered

From patent publication US12558424B2, “T cells having enhanced anti-tumor activity” (The United States of America, as represented by the …, priority 2019, dated 2026)
